The text below walks through data of US20220296635A1 (Board of Regents, The University of Texas System, priority 2013, published 2022).

Assay [1] relates to osteosarcoma cells (Saos-2 cells). As to the kind of experiment: Saos-2 cell proliferation (MTT assay). Type of assay: cell-based. The protocol: Methods of inhibiting cancer growth according to some embodiments described herein were carried out as follows. […] Human mesenchymal stem cells (hMSCs) (Lonza Walkersville Inc., USA) were cultured in growth medium composed of Dulbecco's Modified Eagle's Medium (DMEM) supplemented with 10% FBS and 1% penicillin/streptomycin and then seeded in a 96-well plates at a density of 10^4 cells/mL after 80-90% confluence. […] The hMSCs were incubated with the citrate-supplemented media at 37° C. with 5% CO2. Media were changed every other day. […] After incubating at 37° C. for 4 hrs in MTT working solution, the hMSCs in the 96-well plates were submerged in dimethylsulfoxide (DMSO) for 15 minutes on an orbital shaker under dark conditions. The 96-well plates were then placed on a Micro-plate Reader to obtain absorbance values at 595 nm. In addition, live/dead staining was carried out at pre-determined time points (1 day, 4 days, and 7 days). The hMSCs were stained with live/dead working solution (Life Technologies Inc., USA) for 30 minutes and then observed under a Nikon Inverted Fluorescence Microscope to determine cell viability.
The hMSCs were cultured as described above. The Saos-2 cells were cultured in McCoy's 5A medium (Lonza Walkersville Inc., USA) supplemented with 10% FBS and 1% penicillin/streptomycin. […]
(In general: Tetrazolium dyes change colour on reduction, which living cells bring about.)

The test system of assay [2] is Bone marrow stromal cells (BMSCs). The experiment in a line: Calcium nodule formation in BMSC cultures (Von Kossa staining). The conditions noted are these: 12 days of osteogenic induction. Type of assay: cell-based, Sprague-Dawley rats. As to the method: Methods of promoting bone growth according to some embodiments described herein were carried out as follows. Bone marrow stromal cells (BMSCs) derived from 6 week old male Sprague-Dawley rats were cultured in growth medium containing Minimum Essential Medium Alpha (αMEM) supplemented with 10% (V/V) fetal bovine serum (FBS), 0.25 μg/mL Fungizone, and 1% (V/V) penicillin and streptomycin in 6-well plates at a density of 2×10^5 cells/well (Day 0). […] After 12 days of osteogenic induction, the BMSCs cultures were stained with Von Kossa staining and imaged by optical microscopy. The numbers of calcium nodules per well were counted in the inverted microscope. The total area of the calcium nodules was also calculated. FIG. 6A illustrates microscope images of Von Kossa staining. FIG. 6B illustrates the number of observed calcium nodules. FIG. 6C illustrates the total area of the calcium nodules.

Assay [3] concerns osteopontin (OPN). As to the kind of experiment: Osteopontin protein level in hMSCs by Western Blot. Type of assay: cell-based, Human. The conditions noted are these: 20 μM, 200 μM or 2000 μM citrate; 7 days and 14 days. The protocol:
Methods of promoting bone growth according to some embodiments described herein were carried out as follows. Human mesenchymal stem cells (hMSCs) (Lonza Walkersville Inc., USA) were cultured in Dulbecco's Modified Eagle's Medium (DMEM) supplemented with 10% FBS and 1% penicillin and streptomycin. For differentiation, hMSCs were switched to an osteogenic medium (OGM) comprising the previous DMEM-based medium further supplemented with […] β-glycerophosphate and 50 μM ascorbic acid-2-phosphate. The hMSC cells were seeded at a density of 10^4 cells/mL after 80-90% confluence in 96-well plates. […] Media were changed every other day.

For assay [4], the system named is Human mesenchymal stem cells (hMSCs). The experiment in a line: Calcium deposit formation in differentiated hMSC cultures (Von Kossa staining). The note with it: 20 μM citrate, osteogenic medium; 7, 14 and 21 days. Type of assay: cell-based. The protocol:
Methods of promoting bone growth according to some embodiments described herein were carried out as follows. Human mesenchymal stem cells (hMSCs) (Lonza Walkersville Inc., USA) were cultured in Dulbecco's Modified Eagle's Medium (DMEM) supplemented with 10% FBS and 1% penicillin and streptomycin. […] The hMSC cells were seeded at a density of 10^4 cells/mL after 80-90% confluence in 96-well plates. […] Media were changed every other day.

Each structure is given as a SMILES string.

`O=C(O)CC(O)(CC(=O)O)C(=O)O` [citrate, citric acid]: the Saos-2 cell proliferation result in assay [1] (concentrations above 800 μM, 1 day and 4 days) is reported as “inhibit Saos-2 cell proliferation”. In assay [1] (concentrations above 2000 μM), the Saos-2 cell killing entry is on record as “most Saos-2 cells were killed”. In addition, the “number and size of calcium nodules” value in assay [2] (citrate concentration of 20 μM) is given as “induced the highest number of calcium nodules”. In addition, the calcium nodule formation entry in assay [2] (citrate-supplemented osteogenic media (2 μM to 5 mM citric acid)) is “promoted calcium module formation in a dose-dependent manner”. Further, the OPN expression entry in assay [3] is given as “closely associated in a dose-dependent relationship”. Moreover, the calcium deposit formation entry in assay [4] is “able to promote calcium deposit formation”.
